In patent publication US7273866B2, “2-aryl thiazole derivatives as KCNQ modulators” (Bristol-Myers Squibb Company, priority 2002, dated 2007):
pEC50: −log10 of the molar value.

System: KCNQ channels
Assay: Thallium flux assay for KCNQ channel openers
Format: cell-based
Conditions: HEK-293 cells stably transfected with a KCNQ family member
Method in brief: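 HEK-293 lines stably expressing individual KCNQ members, loaded with BTC-AM in chloride-free buffer pH 7.3, compound added (1% DMSO final) before 7.5 mM Tl2SO4 stimulus; fluorescence read 60 s on FLIPR. Minimal active concentration at ≥4 SD above negative controls; EC50 from 10-point logistic fit.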

Work on `CC(NC(=O)c1sc(-c2ccccc2F)nc1C(F)(F)F)c1cccc(OC(F)(F)F)c1` (centres unmarked) [Example 21, 2-(2-fluorophenyl)-4-(trifluoromethyl)-N-[1-[3-(trifluoromethoxy)phenyl]ethyl]-5-thiazolecarboxamide] yielded a Min. conc. response (minimal active concentration: lowest concentration giving signal amplitude >= four standard deviations of negative controls) of 0.3 µM and a pEC50 (thallium flux, 10 point concentration series) of over 7.30.
